Laboratory results as given in US20260174875A1 (Novo Nordisk A/S, priority 2023, published 2026).
pEC50: −log10 of the molar value. Where two headings read alike, the source gives them in different places.

Assays:
Type in all cases: cell-based
[1] = biological target: T1, human GLP-1 receptor (hGLP-1R) (Homo sapiens, UniProt P43220); experiment: GLP-1 receptor assay, method B (CRE-luciferase reporter, BHK cells, 384-well)
T1 construct: expressed in transfected cells

[2] = biological target: T2, human GIP receptor (hGIPR) (Homo sapiens, UniProt P48546); experiment: GIP receptor assay, method B (CRE-luciferase reporter, BHK cells, 384-well)
T2 construct: expressed in transfected cells
T2 sequence (P48546 22-466): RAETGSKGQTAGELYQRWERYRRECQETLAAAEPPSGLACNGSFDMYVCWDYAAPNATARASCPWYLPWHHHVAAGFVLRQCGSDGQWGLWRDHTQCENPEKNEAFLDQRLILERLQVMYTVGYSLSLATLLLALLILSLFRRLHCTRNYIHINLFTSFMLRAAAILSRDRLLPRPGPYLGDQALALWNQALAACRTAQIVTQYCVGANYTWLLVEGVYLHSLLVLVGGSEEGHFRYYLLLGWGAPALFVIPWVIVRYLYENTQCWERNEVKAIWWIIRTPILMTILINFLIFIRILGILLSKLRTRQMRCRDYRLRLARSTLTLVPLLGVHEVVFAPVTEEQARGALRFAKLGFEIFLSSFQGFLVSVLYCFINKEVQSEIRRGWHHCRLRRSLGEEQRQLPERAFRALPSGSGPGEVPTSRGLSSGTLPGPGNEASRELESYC
Excerpt: Activation of the human GIP receptor leads to increased intra-cellular concentrations of cyclic AMP (cAMP) and the consequent transcription activation from promoters containing multiple copies of the cAMP response element (CRE). It is thus possible to measure GIP receptor activity using a CRE-luciferase reporter gene introduced into Baby Hamster Kidney (BHK) cells co-expressing the human GIP receptor.
Cells at about 80-90% confluency were washed once with PBS (Gibco 14190-094) and detached from the cell flasks with Versene (Gibco, 15040-066). After centrifugation, the cells were counted, resuspended and diluted to approximately 1.5-3.0×10^6 (1.5E+6 to 3.0E+6) cells/mL in Recovery Cell Culture Freezing Medium (Gibco, 12648-010) and stored at −180° C. in suitable aliquots until use.
The assay buffer consisted of DMEM without phenol red (Gibco, 11880-028) supplemented with 1× GlutaMAX (Gibco, 35050-038), 10 mM HEPES (Gibco, 15630-056), 1% (w/v) ovalbumin (Sigma, A5503) and 0.1% (v/v) Pluronic F-68 (Gibco, 24040-032) either with HSA or without HSA (Sigma, A9511).
Serial dilutions were transferred to a 384-well assay plate (PerkinElmer/Revvity, 6007688) and mixed with an equal volume (10 μL) of assay buffer without or with 3% HSA (Sigma, A-9511). Frozen stocks of hGIPR BHK Cre-Luc cells were thawed in a 37° C. water bath, washed once in PBS (Gibco 14190-094), diluted to 1.5×10^5 (1.5E+5) cells/mL in assay buffer (without HSA) and added (10 μL) to each well of the 384-well assay plate. After a short centrifugation, the assay plates were incubated for 3 hours at 37° C. in 5% CO2 and let to equilibrated at room temperature for 10 minutes before the addition of 30 μL steadylite Plus™ (PerkinElmer/Revvity, 6066759) per well. Plates were sealed and incubated at room temperature with gentle shaking for 30 minutes while protected from light. Luminescence was detected on a luminescence plate reader e.g. a Synergy 2 (BioTek).

[3] = biological target: T3, human amylin receptor (hAMYR3) (Homo sapiens, UniProt O60896+P30988); experiment: Amylin receptor assay, method B (CRE-luciferase reporter, BHK cells)
T3 construct: host or cells: BHK cells (Hollex-1 line expressing hCTR(a) and CRE-Luc), further transfected with human RAMP3
T3 sequence (P30988 25-474): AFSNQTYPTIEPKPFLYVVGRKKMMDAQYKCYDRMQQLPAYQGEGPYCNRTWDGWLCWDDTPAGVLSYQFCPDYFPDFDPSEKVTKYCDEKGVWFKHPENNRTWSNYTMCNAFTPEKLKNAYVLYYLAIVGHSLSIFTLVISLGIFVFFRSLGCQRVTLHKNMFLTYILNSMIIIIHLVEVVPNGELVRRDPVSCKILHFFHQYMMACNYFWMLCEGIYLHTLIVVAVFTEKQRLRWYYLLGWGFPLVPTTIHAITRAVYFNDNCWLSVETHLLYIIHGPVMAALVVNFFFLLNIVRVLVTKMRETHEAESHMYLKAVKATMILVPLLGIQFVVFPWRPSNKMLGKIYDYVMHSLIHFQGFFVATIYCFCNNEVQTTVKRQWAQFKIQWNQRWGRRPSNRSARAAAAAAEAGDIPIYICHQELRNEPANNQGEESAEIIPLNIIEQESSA
T3 sequence (O60896 24-148): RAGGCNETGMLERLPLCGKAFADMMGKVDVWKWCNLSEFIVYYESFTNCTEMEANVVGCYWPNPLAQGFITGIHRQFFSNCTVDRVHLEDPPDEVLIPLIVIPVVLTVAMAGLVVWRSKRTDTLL
Experimental: To assess how the activation of the receptors is potentially influenced by the presence of human serum albumin (HSA), the in vitro assays were performed in the absence of HSA and presence of 1% (w/v) HSA.
It is thus possible to measure hAMYR3 activity using a CRE-luciferase reporter gene introduced into Baby Hamster Kidney (BHK) cells co-expressing the hAMYR3.
The cell line was further transfected with human receptor modifying protein 3 (RAMP3) using standard methods.
After centrifugation, the cell pellet was resuspended and diluted to approximately 2.5-4.0×10^6 (2.5E+6 to 4.0E+6) cells/mL in Recovery™ Cell Culture Freezing Medium (Gibco, 12648-010). Cells were aliquoted and stored at −180° C. until use.
The assay buffer consisted of DMEM without phenol red (Gibco, 11880-028) supplemented with 1× GlutaMAX (Gibco, 35050-038), 10 mM HEPES (Gibco, 15630-056) and 1% (w/v) ovalbumin (Sigma, A5503) either with or without 0.1% (v/v) Pluronic F-68 (Gibco, 24040-032) and either with or without HSA (Sigma, A9511).
To perform the assay, hAMYR3 BHK Cre-Luc cells were thawed, washed once in PBS (Gibco 14190-094) and seeded in 40 μL growth medium in a white 384-well culture plate (PerkinElmer/Revvity, 6007688) at a cell density of 4.0×10^3 (4.0E+3) cells/well the day before the experiment. The plate was incubated over night at 37° C. in 5% CO2. […] Serial dilutions were then mixed in a new 96-well plate with equal volume (1:1:1 ratio) of assay buffer and either assay buffer without or with 3% HSA (Sigma, A-9511). Twenty microliters of the solution mix were transferred to the cells which previously were washed once with PBS (Gibco 14190-094). After a short centrifugation, the assay plates were incubated for 3 hours at 37° C. in 5% CO2 and let to equilibrated at room temperature for 10 minutes before the addition of 30 μL steadylite Plus™ PerkinElmer/Revvity, 6066759) per well. Plates were sealed and incubated at room temperature with gentle shaking for 30 minutes while protected from light. Luminescence was detected on a luminescence plate reader e.g., a Synergy 2 (BioTek).

[4] = hGLP-1R Potency, 1% HSA, EC50, methods B, in the presence of 1% HSA
[5] = hGIPR Potency, 1% HSA, EC50, methods B, in the presence of 1% HSA
[6] = method B, absence of HSA, read-out: hGIPR Potency, no HSA, EC50
[7] = hAMYR3 Potency, 1% HSA, EC50, methods B, in the presence of 1% HSA
[8] = method B, absence of HSA, read-out: hAMYR3 Potency, no HSA, EC50
[9] = method B, absence of HSA, read-out: hGLP-1R Potency, no HSA, EC50

T1 sequence (P43220 24-463): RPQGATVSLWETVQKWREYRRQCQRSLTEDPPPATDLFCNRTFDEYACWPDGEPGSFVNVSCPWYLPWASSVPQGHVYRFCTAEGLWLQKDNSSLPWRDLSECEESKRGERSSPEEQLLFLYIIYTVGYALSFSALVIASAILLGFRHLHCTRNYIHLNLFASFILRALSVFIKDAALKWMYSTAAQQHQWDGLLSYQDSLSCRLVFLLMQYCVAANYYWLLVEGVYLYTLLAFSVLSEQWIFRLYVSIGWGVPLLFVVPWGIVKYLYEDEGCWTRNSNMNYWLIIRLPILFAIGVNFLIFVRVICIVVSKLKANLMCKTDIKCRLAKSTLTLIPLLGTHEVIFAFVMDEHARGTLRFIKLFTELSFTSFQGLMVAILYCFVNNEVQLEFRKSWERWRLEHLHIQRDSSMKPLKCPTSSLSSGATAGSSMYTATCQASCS

Row | SMILES | pEC50 [1, 4] | pEC50 [2, 5] | pEC50 [2, 6] | pEC50 [3, 7] | pEC50 [3, 8] | pEC50 [1, 9]
1 | CC[C@H](C)[C@H](NC(=O)[C@H](CCC(=O)O)NC(=O)[C@H](CCC(=O)O)NC(=O)[C@H](CC(C)C)NC(=O)[C@H](CC(C)C)NC(=O)[C@@H](NC(=O)[C@H](CO)NC(=O)[C@H](Cc1ccc(O)cc1)NC(=O)[C@H](CC(=O)O)NC(=O)[C@H](CO)NC(=O)[C@@H](NC(=O)[C@H](Cc1ccccc1)NC(=O)[C@@H](NC(=O)CNC(=O)[C@H](CCC(=O)O)NC(=O)C(C)(C)NC(=O)[C@@H](N)Cc1ccc(O)cc1)[C@@H](C)O)[C@@H](C)O)[C@@H](C)CC)C(=O)N[C@@H](C)C(=O)N[C@@H](C)C(=O)N[C@@H](CCCNC(=N)N)C(=O)N[C@@H](CCC(=O)O)C(=O)N[C@@H](Cc1ccccc1)C(=O)N[C@H](C(=O)N[C@@H](CCC(=O)O)C(=O)N[C@@H](Cc1c[nH]c2ccccc12)C(=O)N[C@@H](CC(C)C)C(=O)N[C@@H](CC(C)C)C(=O)N[C@@H](C)C(=O)NCC(=O)NCC(=O)N1CCC[C@H]1C(=O)N[C@@H](CO)C(=O)N[C@@H](CO)C(=O)NCC(=O)N[C@@H](C)C(=O)NCC(=O)N[C@@H](CCC(N)=O)C(=O)N[C@@H](C)C(=O)N1CCC[C@H]1C(=O)NCC(=O)N[C@@H](CCC(N)=O)C(=O)N[C@@H](C)C(=O)N1CCC[C@H]1C(=O)NCC(=O)N[C@@H](C)C(=O)N[C@@H](CO)C(=O)N[C@@H](Cc1c[nH]cn1)C(=O)N[C@@H](CC(C)C)C(=O)N[C@@H](CO)C(=O)N[C@H](C(=O)N[C@@H](C)C(=O)N[C@@H](CCC(N)=O)C(=O)N[C@H](C(=O)N[C@@H](CCC(N)=O)C(=O)N[C@@H](CCCNC(=N)N)C(=O)N[C@@H](CC(C)C)C(=O)N[C@@H](CO)C(=O)N[C@@H](C)C(=O)N[C@@H](CCC(=O)O)C(=O)N[C@@H](CC(C)C)C(=O)N[C@@H](Cc1c[nH]cn1)C(=O)N[C@@H](CCCCNC(=O)COCCOCCNC(=O)COCCOCCNC(=O)CC[C@H](NC(=O)CCCCCCCCCCCCCCCCCCC(=O)O)C(=O)O)C(=O)N[C@@H](CC(C)C)C(=O)N[C@@H](C)C(=O)N[C@H](C(=O)N[C@@H](CC(C)C)C(=O)N1CCC[C@H]1C(=O)N[C@@H](CCCNC(=N)N)C(=O)N[C@H](C(=O)N[C@@H](CCC(=O)O)C(=O)N[C@H](C(=O)NCC(=O)N[C@@H](CO)C(=O)NCC(=O)N[C@@H](CO)C(=O)N1CCC[C@H]1C(N)=O)[C@@H](C)O)[C@@H](C)O)[C@@H](C)O)[C@@H](C)O)[C@@H](C)O)[C@@H](C)CC [Compound 120] | 9.89 | 10.70 | 11.54 | 9.11 | 11.20 | –
2 | CC[C@H](C)[C@H](NC(=O)[C@H](CCC(=O)O)NC(=O)[C@H](CCC(=O)O)NC(=O)[C@H](CC(C)C)NC(=O)[C@H](CC(C)C)NC(=O)[C@@H](NC(=O)[C@H](CO)NC(=O)[C@H](Cc1ccc(O)cc1)NC(=O)[C@H](CC(=O)O)NC(=O)[C@H](CO)NC(=O)[C@@H](NC(=O)[C@H](Cc1ccccc1)NC(=O)[C@@H](NC(=O)CNC(=O)[C@H](CCC(=O)O)NC(=O)C(C)(C)NC(=O)[C@@H](N)Cc1ccc(O)cc1)[C@@H](C)O)[C@@H](C)O)[C@@H](C)CC)C(=O)N[C@@H](C)C(=O)N[C@@H](C)C(=O)N[C@@H](CCCNC(=N)N)C(=O)N[C@@H](CCC(=O)O)C(=O)N[C@@H](Cc1ccccc1)C(=O)N[C@H](C(=O)N[C@@H](CCC(=O)O)C(=O)N[C@@H](Cc1c[nH]c2ccccc12)C(=O)N[C@@H](CC(C)C)C(=O)N[C@@H](CC(C)C)C(=O)N[C@@H](C)C(=O)NCC(=O)NCC(=O)N1CCC[C@H]1C(=O)N[C@@H](CO)C(=O)N[C@@H](CO)C(=O)NCC(=O)N[C@@H](C)C(=O)NCC(=O)N[C@@H](CCC(N)=O)C(=O)N[C@@H](C)C(=O)N1CCC[C@H]1C(=O)N[C@@H](CCC(=O)O)C(=O)N[C@@H](CCC(N)=O)C(=O)N[C@@H](C)C(=O)N1CCC[C@H]1C(=O)NCC(=O)N[C@@H](C)C(=O)N[C@@H](CO)C(=O)N[C@@H](Cc1c[nH]cn1)C(=O)N[C@@H](CC(C)C)C(=O)N[C@@H](CO)C(=O)N[C@H](C(=O)N[C@@H](C)C(=O)N[C@@H](CCC(N)=O)C(=O)N[C@H](C(=O)N[C@@H](CCC(N)=O)C(=O)N[C@@H](CCCNC(=N)N)C(=O)N[C@@H](CC(C)C)C(=O)N[C@@H](CO)C(=O)N[C@@H](C)C(=O)N[C@@H](CCC(=O)O)C(=O)N[C@@H](CC(C)C)C(=O)N[C@@H](Cc1c[nH]cn1)C(=O)N[C@@H](CCCCNC(=O)COCCOCCNC(=O)COCCOCCNC(=O)CC[C@H](NC(=O)CCCCCCCCCCCCCCCCCCC(=O)O)C(=O)O)C(=O)N[C@@H](CC(C)C)C(=O)N[C@@H](C)C(=O)N[C@H](C(=O)N[C@@H](CC(C)C)C(=O)N1CCC[C@H]1C(=O)N[C@@H](CCCNC(=N)N)C(=O)N[C@H](C(=O)N[C@@H](CCC(=O)O)C(=O)N[C@H](C(=O)NCC(=O)N[C@@H](CO)C(=O)NCC(=O)N[C@@H](CO)C(=O)N1CCC[C@H]1C(N)=O)[C@@H](C)O)[C@@H](C)O)[C@@H](C)O)[C@@H](C)O)[C@@H](C)O)[C@@H](C)CC [Compound 151] | 10.14 | 10.86 | 11.40 | 9.02 | 11.01 | 10.56
3 | CC[C@H](C)[C@H](NC(=O)[C@H](CCC(=O)O)NC(=O)[C@H](CCC(=O)O)NC(=O)[C@H](CC(C)C)NC(=O)[C@H](CC(C)C)NC(=O)[C@@H](NC(=O)[C@H](CO)NC(=O)[C@H](Cc1ccc(O)cc1)NC(=O)[C@H](CC(=O)O)NC(=O)[C@H](CO)NC(=O)[C@@H](NC(=O)[C@H](Cc1ccccc1)NC(=O)[C@@H](NC(=O)CNC(=O)[C@H](CCC(=O)O)NC(=O)C(C)(C)NC(=O)[C@@H](N)Cc1ccc(O)cc1)[C@@H](C)O)[C@@H](C)O)[C@@H](C)CC)C(=O)N[C@@H](C)C(=O)N[C@@H](C)C(=O)N[C@@H](CCCNC(=N)N)C(=O)N[C@@H](CCC(=O)O)C(=O)N[C@@H](Cc1ccccc1)C(=O)N[C@H](C(=O)N[C@@H](CCC(=O)O)C(=O)N[C@@H](Cc1c[nH]c2ccccc12)C(=O)N[C@@H](CC(C)C)C(=O)N[C@@H](CC(C)C)C(=O)N[C@@H](C)C(=O)NCC(=O)NCC(=O)N1CCC[C@H]1C(=O)N[C@@H](CO)C(=O)N[C@@H](CO)C(=O)NCC(=O)N[C@@H](C)C(=O)NCC(=O)N[C@@H](CCC(N)=O)C(=O)N[C@@H](C)C(=O)N[C@@H](CCC(=O)O)C(=O)NCC(=O)N[C@@H](CCC(N)=O)C(=O)N[C@@H](C)C(=O)N1CCC[C@H]1C(=O)NCC(=O)N[C@@H](C)C(=O)N[C@@H](CO)C(=O)N[C@@H](Cc1c[nH]cn1)C(=O)N[C@@H](CC(C)C)C(=O)N[C@@H](CO)C(=O)N[C@H](C(=O)N[C@@H](C)C(=O)N[C@@H](CCC(N)=O)C(=O)N[C@H](C(=O)N[C@@H](CCC(N)=O)C(=O)N[C@@H](CCCNC(=N)N)C(=O)N[C@@H](CC(C)C)C(=O)N[C@@H](CO)C(=O)N[C@@H](C)C(=O)N[C@@H](CCC(=O)O)C(=O)N[C@@H](CC(C)C)C(=O)N[C@@H](Cc1c[nH]cn1)C(=O)N[C@@H](CCCCNC(=O)COCCOCCNC(=O)COCCOCCNC(=O)CC[C@H](NC(=O)CCCCCCCCCCCCCCCCCCC(=O)O)C(=O)O)C(=O)N[C@@H](CC(C)C)C(=O)N[C@@H](C)C(=O)N[C@H](C(=O)N[C@@H](CC(C)C)C(=O)N1CCC[C@H]1C(=O)N[C@@H](CCCNC(=N)N)C(=O)N[C@H](C(=O)N[C@@H](CCC(=O)O)C(=O)N[C@H](C(=O)NCC(=O)N[C@@H](CO)C(=O)NCC(=O)N[C@@H](CO)C(=O)N1CCC[C@H]1C(N)=O)[C@@H](C)O)[C@@H](C)O)[C@@H](C)O)[C@@H](C)O)[C@@H](C)O)[C@@H](C)CC [Compound 150] | 10.19 | 10.97 | 11.52 | 9.02 | 11.12 | 10.58
